Values quoted from earlier work in article PMC10166914, “GTN057, a komaroviquinone derivative, induced myeloma cells' death in vivo and inhibited c‐MET tyrosine kinase” (Cancer Medicine, 2023).

Test system: MUM24 cells
Set-up: method as in PMID 28882484
Conditions: read-out: IC50 antiproliferative activity; cited from earlier work

COc1c(O)c2c(c(O)c1C(C)C)C(=O)CC1C(C)(C)CCC[C@]1(O)C2 (stereo partly shown) [GTN054]
IC50: 6.13 µM
